# According to ChEMBL document CHEMBL5365523, “Design of a structure-activity relationship model of vitamin K epoxide reductase (VKORC1) inhibitors combining chemical synthesis of new compounds, enzymatic assays and molecular modelling” (Bioorg Med Chem, 2023):
# Tested on: not listed separately
# Test: Metabolic stability in rat hepatocytes assessed as half life
# Format: ADME, cell-based, Hepatocyte
row,SMILES,half-life
1,O=c1oc2ccccc2c(O)c1C1CC(c2ccc(OCc3ccc(C(F)(F)F)cc3)cc2)Cc2ccccc21 (stereo not given),215 days
2,O=c1oc2ccccc2c(O)c1C1CC(c2ccc(-c3ccccc3)cc2)Cc2ccccc21 (stereo not given),118 days
3,O=c1oc2ccccc2c(O)c1C(CC(O)c1ccc(-c2ccc(Br)cc2)cc1)c1ccccc1 (stereo not given) [BROMODIOLONE],170 days

# Target: Vitamin K epoxide reductase complex subunit 1 (Homo sapiens, UniProt Q9BQB6)
# Sequence (Q9BQB6 whole entry, one chain of several): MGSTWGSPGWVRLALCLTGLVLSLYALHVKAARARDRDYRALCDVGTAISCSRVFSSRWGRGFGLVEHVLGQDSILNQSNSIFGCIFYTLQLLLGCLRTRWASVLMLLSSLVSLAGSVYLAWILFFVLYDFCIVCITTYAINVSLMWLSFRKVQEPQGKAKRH
# Test: Inhibition of recombinant human wild-type VKORC1 expressed in Pichia pastoris membrane incubated for 30 mins in presence of presence of dithiothreitol by LC-APCI/MS/MS analysis
# Format: cell membranes
row,SMILES,IC50
1,CC(c1ccccc1)c1c(O)c2ccccc2oc1=O (stereo not given),1.53 µM
2,CC(C)=CCC/C(C)=C\CC/C(C)=C\Cc1c(O)c2ccccc2oc1=O,0.098 µM
3,O=c1oc2ccccc2c(O)c1C1CC(c2ccc(-c3ccc(Br)cc3)cc2)Cc2ccccc21 (stereo not given) [BRODIFACOUM],0.15 µM
4,CC(C)=CCc1c(O)c2ccccc2oc1=O [ISOPRENYLCOUMARIN],79 µM
5,CC(O)CC(c1ccccc1)c1c(O)c2ccccc2oc1=O (stereo not given) [WARFARIN ALCOHOL],12.5 µM

# Second part, the molecule after the results:
row,IC50,SMILES
1,5.53 µM,COc1cccc(Cc2c(O)c3ccccc3oc2=O)c1
2,0.873 µM,O=c1oc2ccccc2c(O)c1Cc1ccc2c(c1)OCO2
3,23.9 µM,O=c1oc2ccccc2c(O)c1Cc1cccnc1
4,0.643 µM,O=c1oc2ccccc2c(O)c1Cc1ccc(Br)cc1
5,0.527 µM,CSc1ccc(Cc2c(O)c3ccccc3oc2=O)cc1
6,2.72 µM,COc1ccc(Cc2c(O)c3ccccc3oc2=O)cc1
7,0.498 µM,O=c1oc2ccccc2c(O)c1Cc1ccc(C(F)(F)F)cc1
